Source: PMC9067983, “Identification of highly selective type II kinase inhibitors with chiral peptidomimetic tails” (Journal of Enzyme Inhibition and Medicinal Chemistry, 2022)
Where a SMILES comes first, the peptide text is derived from it. [ ]: non-standard residue; d: D form. The star is where a group is joined. X1 = Cc1ccc(Nc2ncc3c(n2)N(C)C(=O)N(c2cc(C(=O)*)ccc2C)C3)cn1; Aib = CC(C)(N)C(=O)O

What was measured:
Experiment in all cases: kinase selectivity profiling
Type in all cases: biochemical
Details in all cases: 10µM ATP, read-out: % inhibition (relative to DMSO)
[1] = target: T1, AKT2 (Homo sapiens, UniProt P31751)
T1 construct: purchased Reaction Biology Corp
Procedure: (§1) Full panel kinase profiling and kinase IC50 measurement were performed by using Reaction Biology Corp. (San Diego, USA).

[2] = target: T2, ALK2/ACVR1 (Homo sapiens, UniProt Q04771)
T2 construct: purchased Reaction Biology Corp
Procedure: as §1

[3] = target: T3, ASK1/MAP3K5 (Homo sapiens, UniProt Q99683)
T3 construct: purchased Reaction Biology Corp
Procedure: as §1

[4] = target: T4, AXL (Homo sapiens, UniProt P30530)
T4 construct: purchased Reaction Biology Corp
Procedure: as §1

[5] = target: T5, CAMK4 (Homo sapiens, UniProt Q16566)
T5 construct: purchased Reaction Biology Corp
Procedure: as §1

[6] = target: T6, CDK1/cyclin A (Homo sapiens, UniProt P06493)
T6 construct: purchased Reaction Biology Corp
Procedure: as §1

[7] = target: T7, CDK1/cyclin B (Homo sapiens, UniProt P06493)
T7 construct: purchased Reaction Biology Corp
Procedure: as §1

[8] = target: T8, CDK4/cyclin D3 (Homo sapiens, UniProt P11802)
T8 construct: purchased Reaction Biology Corp
Procedure: as §1

[9] = target: T9, CDK5/P25 (Homo sapiens, UniProt Q00535)
T9 construct: purchased Reaction Biology Corp
Procedure: as §1

[10] = target: T10, CHK1 (Homo sapiens, UniProt O14757)
T10 construct: purchased Reaction Biology Corp
Procedure: as §1

[11] = target: T11, CLK1 (Homo sapiens, UniProt P49759)
T11 construct: purchased Reaction Biology Corp
Procedure: as §1

[12] = target: T12, DYRK1/DYRK1A (Homo sapiens, UniProt Q13627)
T12 construct: purchased Reaction Biology Corp
Procedure: as §1

[13] = target: T13, EPHA8 (Homo sapiens, UniProt P29322)
T13 construct: purchased Reaction Biology Corp
Procedure: as §1

[14] = target: T14, ERK7/MAPK15 (Homo sapiens, UniProt Q8TD08)
T14 construct: purchased Reaction Biology Corp
Procedure: as §1

[15] = target: T15, GRK7 (Homo sapiens, UniProt Q8WTQ7)
T15 construct: purchased Reaction Biology Corp
Procedure: as §1

[16] = target: T16, GSK3b (Homo sapiens, UniProt P49841)
T16 construct: purchased Reaction Biology Corp
Procedure: as §1

[17] = target: T17, HPK1/MAP4K1 (Homo sapiens, UniProt Q92918)
T17 construct: purchased Reaction Biology Corp
Procedure: as §1

[18] = target: T18, IKKe/IKBKE (Homo sapiens, UniProt Q14164)
T18 construct: purchased Reaction Biology Corp
Procedure: as §1

[19] = target: T19, IRAK4 (Homo sapiens, UniProt Q9NWZ3)
T19 construct: purchased Reaction Biology Corp
Procedure: as §1

[20] = target: T20, JAK2 (Homo sapiens, UniProt O60674)
T20 construct: purchased Reaction Biology Corp
Procedure: as §1

[21] = target: T21, JNK3 (Homo sapiens, UniProt P53779)
T21 construct: purchased Reaction Biology Corp
Procedure: as §1

[22] = target: T22, KDR/VEGFR2 (Homo sapiens, UniProt P35968)
T22 construct: purchased Reaction Biology Corp
Procedure: as §1

[23] = target: T23, KSR2 (Homo sapiens, UniProt Q6VAB6)
T23 construct: purchased Reaction Biology Corp
Procedure: as §1

[24] = target: T24, MAPKAPK5/PRAK (Homo sapiens, UniProt Q8IW41)
T24 construct: purchased Reaction Biology Corp
Procedure: as §1

[25] = target: T25, MARK2/PAR-1Ba (Homo sapiens, UniProt Q7KZI7)
T25 construct: purchased Reaction Biology Corp
Procedure: as §1

[26] = target: T26, MEK5 (Homo sapiens, UniProt Q13163)
T26 construct: purchased Reaction Biology Corp
Procedure: as §1

[27] = target: T27, MLK4 (Homo sapiens, UniProt Q5TCX8)
T27 construct: purchased Reaction Biology Corp
Procedure: as §1

[28] = target: T28, MRCKa/CDC42BPA (Homo sapiens, UniProt Q5VT25)
T28 construct: purchased Reaction Biology Corp
Procedure: as §1

[29] = target: T29, MST4 (Homo sapiens, UniProt Q9P289)
T29 construct: purchased Reaction Biology Corp
Procedure: as §1

[30] = target: T30, NIM1 (Homo sapiens, UniProt Q8IY84)
T30 construct: purchased Reaction Biology Corp
Procedure: as §1

[31] = target: T31, NLK (Homo sapiens, UniProt Q9UBE8)
T31 construct: purchased Reaction Biology Corp
Procedure: as §1

[32] = target: T32, P38g (Homo sapiens, UniProt P53778)
T32 construct: purchased Reaction Biology Corp
Procedure: as §1

[33] = target: T33, PASK (Homo sapiens, UniProt Q96RG2)
T33 construct: purchased Reaction Biology Corp
Procedure: as §1

[34] = target: T34, PHKg2 (Homo sapiens, UniProt P15735)
T34 construct: purchased Reaction Biology Corp
Procedure: as §1

[35] = target: T35, PKCd (Homo sapiens, UniProt Q05655)
T35 construct: purchased Reaction Biology Corp
Procedure: as §1

[36] = target: T36, PKCeta (Homo sapiens, UniProt P24723)
T36 construct: purchased Reaction Biology Corp
Procedure: as §1

[37] = target: T37, RIPK3 (Homo sapiens, UniProt Q9Y572)
T37 construct: purchased Reaction Biology Corp
Procedure: as §1

[38] = target: T38, RIPK4 (Homo sapiens, UniProt P57078)
T38 construct: purchased Reaction Biology Corp
Procedure: as §1

[39] = target: T39, ROCK2 (Homo sapiens, UniProt O75116)
T39 construct: purchased Reaction Biology Corp
Procedure: as §1

[40] = target: T40, SNARK/NUAK2 (Homo sapiens, UniProt Q9H093)
T40 construct: purchased Reaction Biology Corp
Procedure: as §1

[41] = target: T41, SRPK2 (Homo sapiens, UniProt P78362)
T41 construct: purchased Reaction Biology Corp
Procedure: as §1

[42] = target: T42, SYK (Homo sapiens, UniProt P43405)
T42 construct: purchased Reaction Biology Corp
Procedure: as §1

[43] = target: T43, TNK1 (Homo sapiens, UniProt Q13470)
T43 construct: purchased Reaction Biology Corp
Procedure: as §1

T24 sequence (Q8IW41 whole entry): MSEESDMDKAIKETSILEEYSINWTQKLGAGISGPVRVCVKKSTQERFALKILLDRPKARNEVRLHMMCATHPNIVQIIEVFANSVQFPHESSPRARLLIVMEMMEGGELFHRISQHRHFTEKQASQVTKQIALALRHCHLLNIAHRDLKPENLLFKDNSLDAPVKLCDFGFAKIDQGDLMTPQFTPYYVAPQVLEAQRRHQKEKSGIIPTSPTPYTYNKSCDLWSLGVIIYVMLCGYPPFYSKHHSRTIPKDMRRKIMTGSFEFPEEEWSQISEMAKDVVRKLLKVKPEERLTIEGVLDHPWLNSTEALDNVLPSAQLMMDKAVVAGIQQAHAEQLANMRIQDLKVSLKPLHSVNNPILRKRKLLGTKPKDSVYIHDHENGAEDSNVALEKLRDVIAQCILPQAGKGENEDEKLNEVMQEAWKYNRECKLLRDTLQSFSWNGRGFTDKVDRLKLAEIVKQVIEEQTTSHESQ
T37 sequence (Q9Y572 whole entry): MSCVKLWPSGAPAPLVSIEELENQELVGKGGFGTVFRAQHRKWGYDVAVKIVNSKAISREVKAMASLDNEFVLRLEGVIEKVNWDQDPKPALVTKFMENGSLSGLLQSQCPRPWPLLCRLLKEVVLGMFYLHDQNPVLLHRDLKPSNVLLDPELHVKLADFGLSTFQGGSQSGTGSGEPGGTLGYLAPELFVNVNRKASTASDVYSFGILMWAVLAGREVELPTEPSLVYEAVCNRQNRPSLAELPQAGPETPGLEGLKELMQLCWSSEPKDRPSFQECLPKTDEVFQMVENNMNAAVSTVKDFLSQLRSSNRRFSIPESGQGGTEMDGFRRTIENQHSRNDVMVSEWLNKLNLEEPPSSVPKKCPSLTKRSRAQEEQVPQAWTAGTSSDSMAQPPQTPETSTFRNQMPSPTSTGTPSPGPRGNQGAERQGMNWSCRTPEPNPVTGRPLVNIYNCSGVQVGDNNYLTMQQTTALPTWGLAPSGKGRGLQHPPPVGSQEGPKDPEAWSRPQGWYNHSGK
T17 sequence (Q92918 whole entry): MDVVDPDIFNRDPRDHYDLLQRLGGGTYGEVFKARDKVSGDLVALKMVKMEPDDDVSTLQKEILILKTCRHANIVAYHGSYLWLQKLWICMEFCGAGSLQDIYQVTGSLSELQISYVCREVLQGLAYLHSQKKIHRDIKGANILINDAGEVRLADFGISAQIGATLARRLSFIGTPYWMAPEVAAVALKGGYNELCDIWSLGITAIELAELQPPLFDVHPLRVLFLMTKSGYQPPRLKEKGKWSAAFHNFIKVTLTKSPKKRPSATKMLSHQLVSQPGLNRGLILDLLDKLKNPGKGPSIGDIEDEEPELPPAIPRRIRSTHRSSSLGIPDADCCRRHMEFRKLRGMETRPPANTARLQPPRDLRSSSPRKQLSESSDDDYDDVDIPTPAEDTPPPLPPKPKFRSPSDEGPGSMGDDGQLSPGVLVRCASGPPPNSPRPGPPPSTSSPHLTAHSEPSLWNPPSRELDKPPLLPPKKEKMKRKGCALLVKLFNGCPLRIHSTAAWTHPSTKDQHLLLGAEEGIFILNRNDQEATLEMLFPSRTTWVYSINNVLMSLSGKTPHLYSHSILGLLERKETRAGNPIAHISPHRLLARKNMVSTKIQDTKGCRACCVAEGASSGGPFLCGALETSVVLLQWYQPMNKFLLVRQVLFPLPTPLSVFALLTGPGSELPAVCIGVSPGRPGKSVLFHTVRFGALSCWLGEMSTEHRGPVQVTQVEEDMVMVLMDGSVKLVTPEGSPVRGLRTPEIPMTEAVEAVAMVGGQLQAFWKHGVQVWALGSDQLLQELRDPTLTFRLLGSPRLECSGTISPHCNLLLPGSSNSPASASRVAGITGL
T6 sequence (P06493 whole entry): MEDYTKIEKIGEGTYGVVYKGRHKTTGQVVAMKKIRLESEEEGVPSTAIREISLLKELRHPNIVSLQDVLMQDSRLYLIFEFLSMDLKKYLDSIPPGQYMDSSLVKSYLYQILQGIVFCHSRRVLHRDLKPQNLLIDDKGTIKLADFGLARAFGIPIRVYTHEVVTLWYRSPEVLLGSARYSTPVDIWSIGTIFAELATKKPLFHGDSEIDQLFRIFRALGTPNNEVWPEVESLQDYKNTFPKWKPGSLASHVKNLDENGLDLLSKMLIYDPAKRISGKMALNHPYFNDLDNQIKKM
T6 sequence (P20248 whole entry partner): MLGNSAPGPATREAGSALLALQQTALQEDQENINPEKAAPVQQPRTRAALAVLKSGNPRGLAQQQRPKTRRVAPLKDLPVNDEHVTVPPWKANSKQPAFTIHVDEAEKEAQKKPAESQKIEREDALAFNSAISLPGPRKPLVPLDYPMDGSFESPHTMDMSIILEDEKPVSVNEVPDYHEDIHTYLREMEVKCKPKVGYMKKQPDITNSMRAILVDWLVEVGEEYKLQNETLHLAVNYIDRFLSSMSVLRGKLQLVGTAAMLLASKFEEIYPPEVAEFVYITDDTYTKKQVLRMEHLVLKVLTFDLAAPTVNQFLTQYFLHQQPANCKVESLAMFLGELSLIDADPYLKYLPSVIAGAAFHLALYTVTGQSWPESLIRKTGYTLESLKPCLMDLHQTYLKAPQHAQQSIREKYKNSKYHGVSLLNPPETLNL
T7 sequence (P06493 whole entry): as the sequence (P06493 whole entry) above
T7 sequence (P14635 whole entry partner): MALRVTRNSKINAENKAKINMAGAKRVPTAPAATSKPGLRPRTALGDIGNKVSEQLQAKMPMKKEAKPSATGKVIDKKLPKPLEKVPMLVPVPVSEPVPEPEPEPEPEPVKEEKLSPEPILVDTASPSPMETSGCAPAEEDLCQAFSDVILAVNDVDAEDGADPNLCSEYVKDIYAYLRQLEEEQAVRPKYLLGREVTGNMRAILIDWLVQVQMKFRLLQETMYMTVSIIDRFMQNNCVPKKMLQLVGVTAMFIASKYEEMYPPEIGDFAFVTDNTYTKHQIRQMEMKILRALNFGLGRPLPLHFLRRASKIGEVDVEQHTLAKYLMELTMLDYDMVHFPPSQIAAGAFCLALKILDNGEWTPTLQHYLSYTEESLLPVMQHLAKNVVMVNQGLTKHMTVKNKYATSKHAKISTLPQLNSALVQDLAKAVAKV
T28 sequence (Q5VT25 whole entry): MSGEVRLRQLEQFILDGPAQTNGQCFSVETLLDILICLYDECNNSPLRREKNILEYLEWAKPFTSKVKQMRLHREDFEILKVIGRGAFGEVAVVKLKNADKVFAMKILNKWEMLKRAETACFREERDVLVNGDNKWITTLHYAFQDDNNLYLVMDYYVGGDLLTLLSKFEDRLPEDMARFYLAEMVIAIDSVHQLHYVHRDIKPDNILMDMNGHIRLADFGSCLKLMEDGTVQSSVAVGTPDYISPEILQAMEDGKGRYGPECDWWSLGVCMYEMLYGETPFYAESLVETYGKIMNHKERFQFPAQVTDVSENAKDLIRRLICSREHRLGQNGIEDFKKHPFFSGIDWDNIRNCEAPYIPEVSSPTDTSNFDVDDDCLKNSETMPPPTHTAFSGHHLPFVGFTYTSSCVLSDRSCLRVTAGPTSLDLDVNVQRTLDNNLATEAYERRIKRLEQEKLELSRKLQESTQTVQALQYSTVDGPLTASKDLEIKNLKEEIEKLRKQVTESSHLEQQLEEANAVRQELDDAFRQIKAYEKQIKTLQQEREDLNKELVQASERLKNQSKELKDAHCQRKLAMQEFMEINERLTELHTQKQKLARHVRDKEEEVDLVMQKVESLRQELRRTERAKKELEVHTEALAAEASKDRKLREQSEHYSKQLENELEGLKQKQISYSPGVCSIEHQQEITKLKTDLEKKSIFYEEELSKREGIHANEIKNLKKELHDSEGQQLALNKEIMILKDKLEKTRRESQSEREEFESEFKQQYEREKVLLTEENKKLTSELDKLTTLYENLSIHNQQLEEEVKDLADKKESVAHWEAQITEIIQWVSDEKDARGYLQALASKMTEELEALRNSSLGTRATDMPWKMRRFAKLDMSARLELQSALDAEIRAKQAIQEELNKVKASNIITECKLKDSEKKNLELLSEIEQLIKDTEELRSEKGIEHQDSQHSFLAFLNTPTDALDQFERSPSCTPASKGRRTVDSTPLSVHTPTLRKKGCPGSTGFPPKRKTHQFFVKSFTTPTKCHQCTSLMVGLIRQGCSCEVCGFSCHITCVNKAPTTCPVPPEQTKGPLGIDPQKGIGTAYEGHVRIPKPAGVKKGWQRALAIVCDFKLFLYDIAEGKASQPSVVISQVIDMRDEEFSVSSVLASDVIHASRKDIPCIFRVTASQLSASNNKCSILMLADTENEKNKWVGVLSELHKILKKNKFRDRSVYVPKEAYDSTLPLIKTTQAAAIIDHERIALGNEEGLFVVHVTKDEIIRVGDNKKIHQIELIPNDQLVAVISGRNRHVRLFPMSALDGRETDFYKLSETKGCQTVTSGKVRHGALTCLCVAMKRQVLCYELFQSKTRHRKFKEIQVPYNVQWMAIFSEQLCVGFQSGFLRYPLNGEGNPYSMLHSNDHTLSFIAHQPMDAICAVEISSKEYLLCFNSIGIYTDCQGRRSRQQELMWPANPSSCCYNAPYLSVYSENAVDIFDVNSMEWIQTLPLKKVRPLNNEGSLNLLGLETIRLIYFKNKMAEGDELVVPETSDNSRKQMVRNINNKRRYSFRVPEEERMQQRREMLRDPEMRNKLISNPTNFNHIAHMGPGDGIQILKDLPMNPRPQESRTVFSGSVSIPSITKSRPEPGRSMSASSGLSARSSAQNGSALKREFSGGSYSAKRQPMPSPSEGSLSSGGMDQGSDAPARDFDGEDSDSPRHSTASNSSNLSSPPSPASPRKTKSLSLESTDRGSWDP

Cc1ccc(Nc2ncc3c(n2)N(C)C(=O)N(c2cc(C(=O)N[C@H](C(=O)N4CCC[C@H]4C(=O)NC(C)(C)C(=O)N[C@@H](CC(C)C)C(=O)N(C)C)C(C)C)ccc2C)C3)cn1 [7a, (S)-N-(1-(((S)-1-(dimethylamino)-4-methyl-1-oxopentan-2-yl)amino)-2-methyl-1-oxopropan-2-yl)-1-((4-methyl-3-(1-methyl-7-((6-methylpyridin-3-yl)amino)-2-oxo-1,4-dihydropyrimido[4,5-d]pyrimidin-3(2H)-yl)benzoyl)-L-valyl)pyrrolidine-2-carboxamide] (X1-VP[Aib]L-NMe2)
inhibition at 1 µM [1]: 0% | inhibition at 1 µM [2]: 2% | inhibition at 1 µM [3]: 0% | inhibition at 1 µM [4]: 0% | inhibition at 1 µM [5]: 0% | inhibition at 1 µM [6]: 0% | inhibition at 1 µM [7]: 7% | inhibition at 1 µM [8]: 3% | inhibition at 1 µM [9]: 0% | inhibition at 1 µM [10]: 0% | inhibition at 1 µM [11]: 5% | inhibition at 1 µM [12]: 20% | inhibition at 1 µM [13]: 0% | inhibition at 1 µM [14]: 3% | inhibition at 1 µM [15]: 0% | inhibition at 1 µM [16]: 0% | inhibition at 1 µM [17]: 0% | inhibition at 1 µM [18]: 3% | inhibition at 1 µM [19]: 4% | inhibition at 1 µM [20]: 11% | inhibition at 1 µM [21]: 1% | inhibition at 1 µM [22]: 12% | inhibition at 1 µM [23]: 5% | inhibition at 1 µM [24]: 8% | inhibition at 1 µM [25]: 0% | inhibition at 1 µM [26]: 50% | inhibition at 1 µM [27]: 7% | inhibition at 1 µM [28]: 6% | inhibition at 1 µM [29]: 0% | inhibition at 1 µM [30]: 4% | inhibition at 1 µM [31]: 3% | inhibition at 1 µM [32]: 4% | inhibition at 1 µM [33]: 0% | inhibition at 1 µM [34]: 0% | inhibition at 1 µM [35]: 0% | inhibition at 1 µM [36]: 27% | inhibition at 1 µM [37]: 0% | inhibition at 1 µM [38]: 15% | inhibition at 1 µM [39]: 10% | inhibition at 1 µM [40]: 6% | inhibition at 1 µM [41]: 0% | inhibition at 1 µM [42]: 0% | inhibition at 1 µM [43]: 2%
